# Measured values reported in patent US12544368B2, “Compositions and methods for reducing cancer stem cells” (The Regents of the University of Colorado, A Body Corporate, priority 2018, dated 2026).
# Legend:
# [1] = test system: LSCs and non-LSCs from human AML specimens; assay: Valinomycin treatment of freshly sorted LSCs and non-LSCs; type: cell-based
# Procedure: To determine whether primary AML cells with a higher expression of FIS1 have increased mitophagy activity, valinomycin treatment experiments were performed on freshly sorted LSCs and non-LSCs from human AML specimens.
# MOLM-13 cells = assay: Valinomycin-induced mitophagy in MOLM-13 cells; type: cell-based, human; conditions: control MOLM-13 cells
# Procedure: To test whether FIS1 is responsible for the distinct mitochondrial morphology, shRNA-mediated knockdown studies in both the AML cell line MOLM-13 and primary AML cells were performed to examine the effect of FIS1 loss on mitochondrial dynamics. […] To determine if the increased mitochondrial content in FIS1-depleted AML cells is caused by a deficient state of mitophagy, mitophagy was induced in the FIS1-depleted and control cells using the mitochondrial stress inducer valinomycin. […] Expression of PINK1, a kinase stabilized upon mitophagy activation and involved in the clearance of damaged mitochondria was also measured.
# CD34+ cells = assay: Valinomycin treatment of normal CD34+ cells; type: cell-based, human; conditions: control and shFIS1 CD34+ cells
# ROS-low LSCs = assay: In vitro amino acid uptake, amino acid levels and transporter expression in LSCs; type: cell-based, human; conditions: LSCs isolated from three patients
# Procedure: Amino acid levels and cell viability were then measured.
# ETC complex II = assay: Glutathione, sdhA glutathionylation and ETC complex II activity in primary AML specimens in vitro; type: cell-based, human
# MDS stem cells = assay: Patient bone marrow derived xenograft model of MDS in NSG-S mice; type: in vivo; conditions: for engraftment models with single agent toxicity for human CD45+ cells: three high-risk MDS patient xenografts
# Text: To further evaluate the clinical potential of various agents for targeting of MDS stem cells, an in vivo patient bone marrow derived xenograft model of MDS was developed. The system employed the use of primary MDS specimens transplanted into immune deficient NSG-S mice.
# Xenografts established using specimens from three independent high-risk MDS patients were used. Drug treatments included single agent therapy with omacetaxine, venetoclax (ABT), azacitidine, the combination of omacetaxine and venetoclax, or the combination of omacetaxine and azacitidine. To evaluate overall drug activity, the reduction of total human hematopoietic cells was measured using the CD45 (pan-hematopoietic) antigen as a marker. […] Next, drug activity in the stem cell compartment was monitored by gating on the CD34+/CD38−/CD123+ subpopulation.
# AML blasts = assay: OXPHOS (seahorse assay) in leukemia cells from patients pre and 24 hours post treatment; type: in vivo, human; conditions: patients receiving single agent
# CD34+/CD38−/CD123+ cells = assay: Viability of cell populations from MDS patient samples in vitro; type: cell-based, human; conditions: for viability / killing of CD123+ MDS stem cells: MDS patient samples, anisomycin 200 nM and 400 nM, ABT-199 200 nm, omacetaxine 200 nM, azacitidine 2.5 μM
# Procedure: Strategies involving inhibiting protein translation were investigated as a means of improving therapeutic outcomes for MDS through the targeting of pathways deregulated in the CD123+ MDS stem cell compartment. A reagent grade compound, anisomycin was tested. Anisomycin is known to inhibit protein translation and induce “ribotoxic stress”.
# (§1) Next, the drug omacetaxine mepesuccinate was tested. Omacetaxine is a protein synthesis inhibitor which is FDA approved.
# The drug azacitidine was also tested.
# The second major phenotype found to be deregulated in CD123+ cells was oxidative phosphorylation and redox status. Thus, the ability of the BCL-2 inhibitor ABT-199 (venetoclax) to preferentially eliminate MDS stem cells was tested.
# LSCs = assay: In vitro viability of LSCs from AML patient samples; type: cell-based, human
# protein synthesis = assay: Protein translation levels (OP-puro) in MDS cells; type: cell-based, human; conditions: MDS patient samples, 4 hours
# Procedure: The upregulation of the translation gene sets indicates a potential for increased protein synthesis in the CD123+ stem cell population. To further investigate changes in translational activity, protein synthesis levels were measured by culturing cells with a fluorescent substrate known as OP-puro, which is incorporated into newly synthesized polypeptide chains and can be quantified as a measure of overall protein synthesis activity.
# as §1
# primary MDS cells = assay: Mitochondrial respiration of primary MDS cells; type: cell-based, human
# Text: An additional component of the efficacy observed with combined ABT-199 and omacetaxine may involve suppression of MCL-1 as increased MCL-1 expression in CD34+/CD123+ MDS cells was observed. Resistance to BCL-2 inhibition can be overcome via treatment with protein synthesis inhibitors, which down-regulate expression of MCL-1.
# relapsed LSCs = assay: APO866 treatment of LSCs from relapsed AML patients (NAD+, viability, colony formation, OXPHOS, glycolysis, metabolic flux); type: cell-based, human
# Text: (§2) To determine if nicotinamide metabolism is important in LSC survival, particularly in the context of relapsed disease, LSCs were first isolated from de novo AML and relapsed AML patients and analyzed. […] Nicotinamide is a precursor of NAD+, an essential coenzyme in energy metabolism. To test if relapsed LSCs are dependent on nicotinamide metabolism to maintain energy metabolism, nicotinamide metabolism was disrupted in LSCs using the small molecule APO866, which is an inhibitor of Nampt, the rate-limiting enzyme for conversion of nicotinamide to NAD+.
# (§3) To better understand the mechanism by which inhibiting nicotinamide metabolism targets relapsed LSCs, changes in OXPHOS and glycolysis activity in de novo and relapsed LSCs after APO866 treatment was measured. […] No change in glycolysis was observed.
# To determine how APO866 reduced OXPHOS, stable isotope metabolic flux of amino acids, the fatty acid palmitate, and glucose into the TCA cycle after APO866 treatment was measured.
# isocitrate dehydrogenase = assay: TCA cycle enzyme activity in relapsed LSCs after APO866; type: cell-based, human; conditions: 4 hours
# de novo LSCs = assay: APO866 treatment of LSCs from de novo AML patients (NAD+, viability, colony formation, OXPHOS); type: cell-based, human
# Text: as §2, §3
# [2] = test system: relapsed AML patient sample; assay: Engraftment of APO866-treated relapsed AML patient sample into immune deficient mice; type: in vivo; conditions: sample treated for 24 hours before engraftment
# [3] = test system: α-ketoglutarate dehydrogenase; assay: TCA cycle enzyme activity in relapsed LSCs after APO866; type: cell-based, human; conditions: 4 hours
# malate dehydrogenase = assay: as above; type: cell-based, human; conditions: 4 hours
compound,measurement,setting,value
CC(C)[C@@H]1NC(=O)[C@H](C)OC(=O)[C@@H](C(C)C)NC(=O)[C@@H](C(C)C)OC(=O)[C@H](C(C)C)NC(=O)[C@H](C)OC(=O)[C@@H](C(C)C)NC(=O)[C@@H](C(C)C)OC(=O)[C@H](C(C)C)NC(=O)[C@H](C)OC(=O)[C@@H](C(C)C)NC(=O)[C@@H](C(C)C)OC1=O [valinomycin],mitochondrial mass in LSCs,[1]; freshly sorted LSCs,efficient clearance of mitochondria
same,mitochondrial mass in non-LSCs,[1]; freshly sorted non-LSCs,further accumulation of mitochondrial mass
same,mitochondrial content,MOLM-13 cells,loss of mitochondria
same,PINK1 expression,MOLM-13 cells; 5 mM valinomycin for 3 hr,increased PINK1 expression
same,mitochondrial mass,CD34+ cells,induced mitochondrial accumulation
Nc1ncn([C@@H]2O[C@H](CO)[C@@H](O)[C@H]2O)c(=O)n1 [azacitidine],amino acid transporter expression,ROS-low LSCs,Neither venetoclax nor azacitidine could reduce expression
same,ROS levels,ETC complex II,can increase ROS levels
same,engraftment models with single agent toxicity for human CD45+ cells,MDS stem cells,one
same,patients without alterations in OXPHOS levels,AML blasts,two of three
same,viability / killing of CD123+ MDS stem cells,CD34+/CD38−/CD123+ cells,no significant decreases in viability
same,toxicity between CD123+ vs. CD123−,CD34+/CD38−/CD123+ cells; seven high-risk MDS patient specimens,no differential toxicity
same,ROS-low LSC and ROS-high AML blast viability,"LSCs; in vitro, 500 nM venetoclax, 2.5 μM azacitidine, 24 hours",potentiates the effect of venetoclax
"COc1ccc(C[C@H]2NC[C@H](O)[C@H]2OC(C)=O)cc1 [Anisomycin, anisomycin]",viability / killing of CD123+ MDS stem cells,CD34+/CD38−/CD123+ cells,selective killing
"COC(=O)C[C@](O)(CCCC(C)(C)O)C(=O)O[C@@H]1C(OC)=C[C@]23CCCN2CCc2cc4c(cc2[C@H]13)OCO4 [omacetaxine, omacetaxine mepesuccinate]",protein translation levels,protein synthesis,effective at decreasing protein translation levels
same,mitochondrial respiration,primary MDS cells,impairs mitochondrial respiration
same,engraftment models with single agent toxicity in the more primitive cells,MDS stem cells; CD34+/CD38−/CD123+ subpopulation,2 of 3
same,reduction in CD34+/CD38−/CD123+ cells,MDS stem cells; each xenograft,greater than or equal to 50%
same,reduction in CD34+/CD38−/CD123+ cells,MDS stem cells; one xenograft,> 80%
same,engraftment models with single agent toxicity for human CD45+ cells,MDS stem cells,two
same,viability / killing of CD123+ MDS stem cells,CD34+/CD38−/CD123+ cells,specifically targeted CD123+ cells
sorbitan sesquioleate [SSO],normal HSPCs viability or colony forming ability,normal HSPCs,did not affect
CCOC(=O)[C@@]1(CCCCCCOc2ccc(Cl)cc2)CO1 [etomoxir],sensitization of LSCs,LSCs; venetoclax/azacitidine resistant LSCs,potently sensitizes LSCs to venetoclax+azacitidine
O=C(/C=C/c1cccnc1)NCCCCC1CCN(C(=O)c2ccccc2)CC1 [APO866],NAD+,relapsed LSCs; LSCs from relapsed AML patient samples,significant decrease in NAD+
same,viability and colony-forming ability,"relapsed LSCs; LSCs from relapsed AML patients, 24 hours",decreased viability and colony-forming ability
same,glycolysis,relapsed LSCs; de novo and relapsed LSCs,No change
same,OXPHOS and OXPHOS capacity,"relapsed LSCs; relapsed LSCs, 4 hours",significant decrease
same,"citrate, malate, and α-ketoglutarate from amino acids and palmitate",relapsed LSCs; stable isotope metabolic flux,increased accumulation
same,glycolysis or glucose contribution to the TCA cycle,relapsed LSCs; stable isotope metabolic flux,No changes
same,isocitrate dehydrogenase activity,isocitrate dehydrogenase,significantly decreased
same,normal hematopoietic stem cell frequency or colony forming ability,normal HSPCs,did not affect
same,NAD+,de novo LSCs; LSCs from de novo AML patient samples,significant decrease in NAD+
same,viability and colony-forming ability,"de novo LSCs; LSCs from de novo, untreated patients, 24 hours","not LSCs from de novo, untreated patients"
same,OXPHOS and OXPHOS capacity,"de novo LSCs; de novo LSCs, 4 hours",not de novo LSCs
same,leukemia engraftment,[2],significant reduction in leukemia engraftment
same,α-ketoglutarate dehydrogenase activity,[3],significantly decreased
same,malate dehydrogenase activity,malate dehydrogenase,significantly decreased
